In patent publication US7834019B2, “Substituted pyrazolo[3,4-d]pyrimidinone derivatives” (Banyu Pharmaceutical Co., Ltd., priority 2006, dated 2010):

What was measured:
[1] = tested on: Human non-small-cell lung cancer cells (NCI-H1299); test: Radiation (X-ray) sensitizing effect, DNA fragmentation (subG1, FACS) in NCI-H1299 cells; type: cell-based
From the text: Pharmaceutical Test 5 (Method of Determining Drug Potency with Cells (Radiation (X-Ray) Sensitizing Effect))
Fetal bovine serum (FBS) was gotten from Morgate; RPMI 1640 medium and 0.25% trypsin EDTA were from Invitrogen; cycle test plus DNA reagent kit was from Becton Dickinson; and nylon net filter was from Millipore.
Human non-small-cell lung cancer cells (NCI-H1299) were gotten from ATCC.
NCI-H1299 cells were suspended in 10% FBS-added RPMI 1640 medium, and the cell suspension was applied to a 6-well Nunclondelta-processed plastic plate bought from Nunc, in an amount of 100,000 cell/2 ml/well, and incubated overnight in 5% CO2-95% air at 37° C. Using Softex's M-150WE, the cells were irradiated with 5000 R X-rays, and then further incubated in 5% CO2-95% air at 37° C. for 16 hours. A test compound was stepwise diluted with DMSO, and applied to a plate with the X-ray-processed cells sowed thereon, in an amount of 2 μL. This was incubated in 5% CO2-95% air at 37° C. for 8 hours, and then the culture was partly taken out. 0.25% trypsin was added to the cells remaining on the plate, in an amount of 600 μL, and statically kept at room temperature to prepare a single cell suspension. […] Using Becton Dickinson's FACS Calibur, the DNA amount in each cell was quantitatively determined according to a FACS process, and the ratio of the cells having caused DNA fragmentation was determined.

[2] = tested on: Human colon cancer cells WiDr; test: Tumor growth-inhibitory effect, WiDr tumor implanted subcutaneously in nude rats; type: in vivo, F344/N Jcl-mu nude rats; settings: compound alone 0.75 mg/kg/hr, continuous intravenous injection for 8 hours
Experimental: Pharmaceutical Test 4 (Tumor Growth-Inhibitory Effect)
Human colon cancer cells WiDr (gotten from ATCC) were implanted into the subcutaneous area of the back of F344/N Jcl-mu nude rats. Eight days after the implantation, gemcitabine (50 mg/kg, Gemzar injection, Eli-Lilly) was intravenously administered to them; and after 24 hours, a test compound was dissolved in a solvent (5% glucose) and given to them through continuous intravenous injection for 8 hours. The tumor volume (0.5×(major diameter)×(minor diameter)^2) was determined on day 0, 3, 6, 10 and 13. Day 0 means the day on which gemcitabine was administered. The relative tumor volume is a relative value, as calculated on the basis of the tumor volume of 1 on day 0. The tumor growth percentage (% T/C) was obtained according to the following formula:
When the tumor volume change from day 0 in the group subjected to test compound administration is more than 0 (>0): % T/C=[(tumor volume change in the test compounds on day 3, 6, 10, 13)/(tumor volume change in the control on day 3, 6, 10, 13)]×100. When the tumor volume change from day 0 in the group subjected to test compound administration is less than 0 (<0): % T/C=[(tumor volume change in the test compounds on day 3, 6, 10, 13)/(tumor volume […])]×100.

C=CCn1c(=O)c2cnc(Nc3ccc(N4CCN(C)CC4)cc3)nc2n1-c1cccc(C(C)(C)O)n1 [Example 53, 2-allyl-1-[6-(1-hydroxy-1-methylethyl)pyridin-2-yl]-6-{[4-(4-methylpiperazin-1-yl)phenyl]amino}-1,2-dihydro-3H-pyrazolo[3,4-d]pyrimidin-3-one]
DNA Fragmentation-Inducing Effect (H1299) (subG1, %) ([1]; X-ray (5000 R, 16 hours before) + compound for 8 hours): 54.8%
DNA Fragmentation-Inducing Effect (H1299) (subG1, %) ([1]; compound alone, without X-ray, 8 hours): 3.9%
% T/C day 3 ([2]; day 3): 86%
% T/C day 6 ([2]; day 6): 74%
% T/C day 10 ([2]; day 10): 81%
% T/C day 13 ([2]; day 13): 89%
